According to patent US20140206681A1, “BTK INHIBITORS” (priority 2013, published 2014):

Columns and labels:
[1] = target: T1, BTK enzyme (recombinant full-length BTK, hBTK) (Homo sapiens, UniProt Q06187); experiment: BTK enzyme activity assay, LANCE TR-FRET; assay type: biochemical; conditions: 50 pM hBTK, 2 μM biotin-A5-peptide, 25 μM ATP; 60 min compound & enzyme incubation; read-out: IC50 BTK activity value
T1 construct: recombinant protein from baculovirus-transfected Sf9 cells: full-length BTK, 6HIS-tag cleaved; 6HIS (cleaved yes); made in house; host or cells: baculovirus-transfected Sf9 cells
T1 sequence (Q06187 whole entry): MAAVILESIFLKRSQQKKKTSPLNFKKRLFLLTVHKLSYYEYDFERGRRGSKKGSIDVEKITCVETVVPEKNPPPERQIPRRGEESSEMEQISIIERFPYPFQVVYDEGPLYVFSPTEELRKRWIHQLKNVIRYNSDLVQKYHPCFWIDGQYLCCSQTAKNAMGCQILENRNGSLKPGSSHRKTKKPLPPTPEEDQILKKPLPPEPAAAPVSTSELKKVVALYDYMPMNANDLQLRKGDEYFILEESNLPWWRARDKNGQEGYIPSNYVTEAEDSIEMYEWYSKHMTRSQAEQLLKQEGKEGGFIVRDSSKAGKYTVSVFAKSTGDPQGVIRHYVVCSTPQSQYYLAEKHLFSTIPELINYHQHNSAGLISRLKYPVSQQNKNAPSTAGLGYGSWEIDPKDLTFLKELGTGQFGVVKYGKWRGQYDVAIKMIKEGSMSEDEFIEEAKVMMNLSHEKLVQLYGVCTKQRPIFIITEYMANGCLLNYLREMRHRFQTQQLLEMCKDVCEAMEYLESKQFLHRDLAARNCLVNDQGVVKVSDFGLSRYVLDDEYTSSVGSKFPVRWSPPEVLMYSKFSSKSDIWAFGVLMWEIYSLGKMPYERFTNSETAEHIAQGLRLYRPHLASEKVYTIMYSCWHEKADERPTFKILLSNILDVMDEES

HeLa cells = experiment: [3H]Adenosine uptake functional cellular assay; assay type: cell-based; conditions: Homo sapiens, HeLa, accumulation of [3H]adenosine into HeLa cells; compound range 10 μM to […]; read-out: Adenosine uptake inhibition IC50
Summary of the method: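 Inhibition of adenosine uptake was measured in HeLa cells (ATCC CCL-2) by following accumulation of tritiated adenosine. Cells were kept overnight at 37° C. with 5% (v/v) CO2, then switched to 40 μL HBSS plus 5% (v/v) FBS. 20 μL of 500 nM [3H]adenosine was added, and uptake was counted on a Topcount NXT reader.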

Row | Structure (SMILES) | IC50 [1] | IC50 (HeLa cells)
1 | CCOc1cc(C(=O)Nc2ncc(C)s2)ccc1-c1nc([C@@H]2CC[C@H]3CCC(=O)N3C2)n2ccnc(N)c12 [Example 159, 4-{8-amino-3-[(6R,8aS)-3-oxooctahydroindolizin-6-yl]imidazo[1,5-a]pyrazin-1-yl}-3-ethoxy-N-(5-methyl-1,3-thiazol-2-yl)benzamide] | 0.63 nM | 1220 nM
2 | Nc1ncc(F)n2c([C@@H]3CC[C@H]4CCC(=O)N4C3)nc(-c3ccc(C(=O)Nc4cc(C(F)(F)F)ccn4)cc3)c12 [Example 160, 4-{8-amino-5-fluoro-3-[(6R,8aS)-3-oxooctahydroindolizin-6-yl]imidazo[1,5-a]pyrazin-1-yl}-N-[4-(trifluoromethyl)pyridin-2-yl]benzamide] | 0.28 nM | 290 nM
3 | CCOc1cc(C(=O)Nc2cc(C(F)(F)F)ccn2)ccc1-c1nc([C@@H]2CC[C@H]3CCC(=O)N3C2)n2c(F)cnc(N)c12 [Example 161, 4-{8-amino-5-fluoro-3-[(6R,8aS)-3-oxooctahydroindolizin-6-yl]imidazo[1,5-a]pyrazin-1-yl}-3-ethoxy-N-[4-(trifluoromethyl)pyridin-2-yl]benzamide] | 0.99 nM | 1540 nM
4 | COc1cc(C(=O)Nc2cc(C(F)(F)F)ccn2)ccc1-c1nc([C@@H]2CC[C@H]3CCC(=O)N3C2)n2c(F)cnc(N)c12 [Example 162, 4-{8-amino-5-fluoro-3-[(6R,8aS)-3-oxooctahydroindolizin-6-yl]imidazo[1,5-a]pyrazin-1-yl}-3-methoxy-N-[4-(trifluoromethyl)pyridin-2-yl]benzamide] | 1.3 nM | 1540 nM
5 | CCOc1cc(C(=O)Nc2cc(C(F)(F)F)n(C)n2)ccc1-c1nc([C@@H]2CC[C@H]3CCC(=O)N3C2)n2c(F)cnc(N)c12 [Example 163, 4-{8-amino-5-fluoro-3-[(6R,8aS)-3-oxooctahydroindolizin-6-yl]imidazo[1,5-a]pyrazin-1-yl}-3-ethoxy-N-[1-methyl-5-(trifluoromethyl)-1H-pyrazol-3-yl]benzamide] | 3.1 nM | 2410 nM
6 | CCOc1cc(C(=O)Nc2ncc(C)s2)ccc1-c1nc([C@@H]2CC[C@H]3CCC(=O)N3C2)n2c(F)cnc(N)c12 [Example 164, 4-{8-amino-5-fluoro-3-[(6R,8aS)-3-oxooctahydroindolizin-6-yl]imidazo[1,5-a]pyrazin-1-yl}-3-ethoxy-N-(5-methyl-1,3-thiazol-2-yl)benzamide] | 1.9 nM | 817 nM
7 | Nc1ncc(F)n2c([C@@H]3CC[C@H]4CCC(=O)N4C3)nc(-c3ccc(C(=O)Nc4cc(C(F)(F)F)ccn4)cc3O)c12 [Example 165, 4-{8-amino-5-fluoro-3-[(6R,8aS)-3-oxooctahydroindolizin-6-yl]imidazo[1,5-a]pyrazin-1-yl}-3-hydroxy-N-[4-(trifluoromethyl)pyridin-2-yl]benzamide] | 2.3 nM | 1540 nM
8 | Nc1ncc(F)n2c([C@@H]3CC[C@H]4CCC(=O)N4C3)nc(-c3ccc(C(=O)Nc4cc(C(F)(F)F)ccn4)cc3F)c12 [Example 166, 4-{8-amino-5-fluoro-3-[(6R,8aS)-3-oxooctahydroindolizin-6-yl]imidazo[1,5-a]pyrazin-1-yl}-3-fluoro-N-[4-(trifluoromethyl)pyridin-2-yl]benzamide] | 0.34 nM | 296 nM
9 | Nc1ncc(F)n2c([C@@H]3CC[C@H]4CCC(=O)N4C3)nc(-c3ccc(C(=O)Nc4cc(C5CC5)ccn4)cc3F)c12 [Example 167, 4-{8-amino-5-fluoro-3-[(6R,8aS)-3-oxooctahydroindolizin-6-yl]imidazo[1,5-a]pyrazin-1-yl}-N-(4-cyclopropylpyridin-2-yl)-3-fluorobenzamide] | 1.3 nM | 318 nM
10 | Nc1ncc(F)n2c([C@@H]3CC[C@H]4CCC(=O)N4C3)nc(-c3ccc(C(=O)Nc4cc(C5CC5)ccn4)cc3)c12 [Example 168, 4-{8-amino-5-fluoro-3-[(6R,8aS)-3-oxooctahydroindolizin-6-yl]imidazo[1,5-a]pyrazin-1-yl}-N-(4-cyclopropylpyridin-2-yl)benzamide] | 1.5 nM | 285 nM
11 | CCOc1cc(C(=O)Nc2cc(C(F)(F)F)ccn2)c(F)cc1-c1nc([C@@H]2CC[C@H]3CCC(=O)N3C2)n2c(F)cnc(N)c12 [Example 169, 4-{8-amino-5-fluoro-3-[(6R,8aS)-3-oxooctahydroindolizin-6-yl]imidazo[1,5-a]pyrazin-1-yl}-5-ethoxy-2-fluoro-N-[4-(trifluoromethyl)pyridin-2-yl]benzamide] | 3.7 nM | 2950 nM
12 | Nc1nccn2c([C@@H]3CC[C@H]4CCC(=O)N4C3)nc(-c3ccc(C(=O)Nc4cc(C(F)(F)F)[nH]n4)cc3)c12 [Example 170, 4-(8-amino-3-((6R,8aS)-3-oxooctahydroindolizin-6-yl)imidazo[1,5-a]pyrazin-1-yl)-N-(5-(trifluoromethyl)-1H-pyrazol-3-yl)benzamide] | 36.9 nM | 6750 nM
13 | Cc1cc(NC(=O)c2ccc(-c3nc([C@@H]4CC[C@H]5CCC(=O)N5C4)n4ccnc(N)c34)cc2)nn1C [Example 175, 4-{8-amino-3-[(6R,8aS)-3-oxooctahydroindolizin-6-yl]imidazo[1,5-a]pyrazin-1-yl}-N-(1,5-dimethyl-1H-pyrazol-3-yl)benzamide] | 6.5 nM | 725 nM
14 | Cc1nsc(NC(=O)c2ccc(-c3nc([C@@H]4CC[C@H]5CCC(=O)N5C4)n4ccnc(N)c34)cc2)n1 [Example 176, 4-{8-amino-3-[(6R,8aS)-3-oxooctahydroindolizin-6-yl]imidazo[1,5-a]pyrazin-1-yl}-N-(3-methyl-1,2,4-thiadiazol-5-yl)benzamide] | 14.9 nM | 7810 nM
15 | Nc1nccn2c([C@@H]3CC[C@H]4CCC(=O)N4C3)nc(-c3ccc(C(=O)Nc4nc(C(F)(F)F)c[nH]4)cc3)c12 [Example 177, 4-{8-amino-3-[(6R,8aS)-3-oxooctahydroindolizin-6-yl]imidazo[1,5-a]pyrazin-1-yl}-N-[4-(trifluoromethyl)-1H-imidazol-2-yl]benzamide] | 144 nM | 3320 nM
16 | CCc1nsc(NC(=O)c2ccc(-c3nc([C@@H]4CC[C@H]5CCC(=O)N5C4)n4ccnc(N)c34)cc2)n1 [Example 178, 4-{8-amino-3-[(6R,8aS)-3-oxooctahydroindolizin-6-yl]imidazo[1,5-a]pyrazin-1-yl}-N-(3-ethyl-1,2,4-thiadiazol-5-yl)benzamide] | 27.6 nM | 5490 nM
17 | CC(C)c1nsc(NC(=O)c2ccc(-c3nc([C@@H]4CC[C@H]5CCC(=O)N5C4)n4ccnc(N)c34)cc2)n1 [Example 179, 4-{8-amino-3-[(6R,8aS)-3-oxooctahydroindolizin-6-yl]imidazo[1,5-a]pyrazin-1-yl}-N-[3-(1-methylethyl)-1,2,4-thiadiazol-5-yl]benzamide] | 68.9 nM | 2370 nM
18 | Nc1nccn2c([C@@H]3CC[C@H]4CCC(=O)N4C3)nc(-c3ccc(C(=O)Nc4cc(C(F)(F)F)n(C5CCCC5)n4)cc3)c12 [Example 180, 4-{8-amino-3-[(6R,8aS)-3-oxooctahydroindolizin-6-yl]imidazo[1,5-a]pyrazin-1-yl}-N-[1-cyclopentyl-5-(trifluoromethyl)-1H-pyrazol-3-yl]benzamide] | 285 nM | 230 nM
19 | Cc1nnc(NC(=O)c2ccc(-c3nc([C@@H]4CC[C@H]5CCC(=O)N5C4)n4ccnc(N)c34)cc2)s1 [Example 182, 4-{8-amino-3-[(6R,8aS)-3-oxooctahydroindolizin-6-yl]imidazo[1,5-a]pyrazin-1-yl}-N-(5-methyl-1,3,4-thiadiazol-2-yl)benzamide] | 272 nM | 3610 nM
20 | Cn1nc(NC(=O)c2ccc(-c3nc([C@@H]4CC[C@H]5CCC(=O)N5C4)n4c(Cl)cnc(N)c34)cc2)cc1C(F)(F)F [Example 183, 4-(8-amino-5-chloro-3-((6R,8aS)-3-oxooctahydroindolizin-6-yl)imidazo[1,5-a]pyrazin-1-yl)-N-(1-methyl-5-(trifluoromethyl)-1H-pyrazol-3-yl)benzamide] | 0.64 nM | 470 nM
21 | CCn1nc(NC(=O)c2ccc(-c3nc([C@@H]4CC[C@H]5CCC(=O)N5C4)n4ccnc(N)c34)cc2)cc1C(F)(F)F [Example 185, 4-{8-amino-3-[(6R,8aS)-3-oxooctahydroindolizin-6-yl]imidazo[1,5-a]pyrazin-1-yl}-N-[1-ethyl-5-(trifluoromethyl)-1H-pyrazol-3-yl]benzamide] | 237 nM | 5390 nM
22 | Cc1cc(C(=O)Nc2cc(C(F)(F)F)ccn2)ccc1-c1nc([C@@H]2CC[C@H]3CCC(=O)N3C2)n2ccnc(N)c12 [Example 187, 4-{8-amino-3-[(6R,8aS)-3-oxooctahydroindolizin-6-yl]imidazo[1,5-a]pyrazin-1-yl}-3-methyl-N-[4-(trifluoromethyl)pyridin-2-yl]benzamide] | 0.46 nM | 310 nM
23 | COc1cc(C(=O)Nc2cc(C(F)(F)F)n(C)n2)ccc1-c1nc([C@@H]2CC[C@H]3CCC(=O)N3C2)n2ccnc(N)c12 [Example 188, 4-{8-amino-3-[(6R,8aS)-3-oxooctahydroindolizin-6-yl]imidazo[1,5-a]pyrazin-1-yl}-3-methoxy-N-[1-methyl-5-(trifluoromethyl)-1H-pyrazol-3-yl]benzamide] | 2.7 nM | 3690 nM
24 | COc1cc(C(=O)Nc2cc(C(F)(F)F)n(C)n2)ccc1-c1nc([C@@H]2CC[C@H]3CCC(=O)N3C2)n2c(Cl)cnc(N)c12 [Example 189, 4-{8-amino-5-chloro-3-[(6R,8aS)-3-oxooctahydroindolizin-6-yl]imidazo[1,5-a]pyrazin-1-yl}-3-methoxy-N-[1-methyl-5-(trifluoromethyl)-1H-pyrazol-3-yl]benzamide] | 1.5 nM | 1550 nM
